Drawing on patent US20170022171A1, “2,5-DISUBSTITUTED CYCLOPENTANECARBOXYLIC ACIDS AND THEIR USE” (Bayer Pharma Aktiengesellschaft, priority 2014, published 2017), this text covers IC50 for eleven molecules.

Where only a bound is given, the exact number is not on record here.

Assay type in all cases: biochemical
One test deals with T1, mouse MMP-9 (Mus musculus, UniProt P41245).
T1 construct: purchased R&D Systems 909-MP
The test can be described thus: In vitro mouse MMP-9 inhibition test. From the text:
(§1) The MMP-mediated amidolytic cleavage of a suitable peptide substrate leads to an increase in fluorescent light here too. The signal intensity of the fluorescent light is directly proportional to the enzyme activity. The active concentration of a test compound at which half the enzyme is inhibited (50% signal intensity of the fluorescent light) is reported as the IC50 value.
(§2) Recombinant mouse MMP-9 (from R&D Systems, 909-MP) is chemically activated in accordance with the manufacturer's instructions using APMA. 1 μl of the test compound to be analysed (as a solution in DMSO, suitable concentrations, for example, 1 nM to 30 μM) is pipetted into 24 μl of activated enzyme (final concentration, for example, 0.1 nM) in reaction buffer (50 mM Tris/HCl pH 7.5, 10 mM CaCl2, 150 mM NaCl, 0.05% Brij®-35) in a white 384-hole microtiter plate (MTP). The enzymatic reaction is started by adding the intramolecularly quenched Mca-Pro-Leu-Gly-Leu-Dpa(Dnp)-Ala-Arg-NH2 substrate (final concentration, for example, 5 μM; R&D Systems, ES-001), so as to result in a total test volume of 50 The course of the MMP-9 reaction is measured by measuring the fluorescence intensity (excitation 320 nm, emission 410 nm) over a suitable period of time (for example over 120 min at a temperature of 32° C.).

Another test deals with T2, MMP-9 (Homo sapiens, UniProt P14780).
T2 construct: purchased R&D Systems 911-MP
The test is described as follows: In vitro MMP-9 inhibition test.
Excerpt: as §1
as §2, with “Recombinant MMP-9 (from” for “Recombinant mouse MMP-9 (from”, “R&D Systems, 911-MP) is chemically” for “R&D Systems, 909-MP) is chemically”, “for example, 10 μM; R&D” for “for example, 5 μM; R&D”, “of 50 μl. The course” for “of 50 The course”

A further test deals with T3, mouse MMP-2 (Mus musculus, UniProt P33434).
T3 construct: purchased R&D Systems 924-MP
The test can be described thus: In vitro mouse MMP-2 inhibition test.
Excerpt: as §1
as §2, with “mouse MMP-2” for “mouse MMP-9”, “Systems, 924-MP)” for “Systems, 909-MP)”, “example, 10” for “example, 5”, “the MMP-2” for “the MMP-9”

A further test addresses T4, MMP-2 (Homo sapiens, UniProt P08253).
T4 construct: purchased R&D Systems 902-MP
T4 sequence (P08253 110-660): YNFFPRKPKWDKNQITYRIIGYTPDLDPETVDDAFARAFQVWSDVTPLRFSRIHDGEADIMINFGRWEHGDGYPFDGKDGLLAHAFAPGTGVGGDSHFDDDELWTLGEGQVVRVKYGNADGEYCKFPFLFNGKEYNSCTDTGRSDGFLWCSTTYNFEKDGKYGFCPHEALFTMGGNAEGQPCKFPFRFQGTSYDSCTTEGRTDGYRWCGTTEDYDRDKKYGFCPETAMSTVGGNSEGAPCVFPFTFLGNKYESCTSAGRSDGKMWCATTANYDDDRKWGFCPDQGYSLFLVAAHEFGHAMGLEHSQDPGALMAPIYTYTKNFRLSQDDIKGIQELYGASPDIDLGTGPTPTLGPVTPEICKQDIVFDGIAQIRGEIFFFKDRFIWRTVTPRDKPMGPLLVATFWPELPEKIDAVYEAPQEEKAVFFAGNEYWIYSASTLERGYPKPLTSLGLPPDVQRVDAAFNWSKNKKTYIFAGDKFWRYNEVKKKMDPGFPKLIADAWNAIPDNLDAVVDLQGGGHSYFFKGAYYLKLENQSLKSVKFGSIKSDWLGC
The test can be described thus: In vitro MMP-2 inhibition test.
Excerpt: as §1
Recombinant MMP-2 (from R&D Systems, 902-MP) is chemically activated in accordance with the manufacturer's instructions using APMA. 1 μl of the test compound to be analysed (as a solution in DMSO, suitable concentrations, for example, 1 nM to 30 μM) is pipetted into 24 μl of activated enzyme (final concentration, for example, 2 nM) in reaction buffer (50 mM Tris/HCl pH 7.5, 10 mM CaCl2, 150 mM NaCl, 0.05% Brij®-35) in a white 384-hole microtiter plate (MTP). The enzymatic reaction is started by adding the intramolecularly quenched Mca-Pro-Leu-Gly-Leu-Dpa(Dnp)-Ala-Arg-NH2 substrate (final concentration, for example, 10 μM; R&D Systems, ES-001), so as to result in a total test volume of 50 μl. The course of the MMP-2 reaction is measured by measuring the fluorescence intensity (excitation 320 nm, emission 410 nm) over a suitable period of time (for example over 120 min at a temperature of 32° C.).

T2 sequence (P14780 107-707 limits assumed): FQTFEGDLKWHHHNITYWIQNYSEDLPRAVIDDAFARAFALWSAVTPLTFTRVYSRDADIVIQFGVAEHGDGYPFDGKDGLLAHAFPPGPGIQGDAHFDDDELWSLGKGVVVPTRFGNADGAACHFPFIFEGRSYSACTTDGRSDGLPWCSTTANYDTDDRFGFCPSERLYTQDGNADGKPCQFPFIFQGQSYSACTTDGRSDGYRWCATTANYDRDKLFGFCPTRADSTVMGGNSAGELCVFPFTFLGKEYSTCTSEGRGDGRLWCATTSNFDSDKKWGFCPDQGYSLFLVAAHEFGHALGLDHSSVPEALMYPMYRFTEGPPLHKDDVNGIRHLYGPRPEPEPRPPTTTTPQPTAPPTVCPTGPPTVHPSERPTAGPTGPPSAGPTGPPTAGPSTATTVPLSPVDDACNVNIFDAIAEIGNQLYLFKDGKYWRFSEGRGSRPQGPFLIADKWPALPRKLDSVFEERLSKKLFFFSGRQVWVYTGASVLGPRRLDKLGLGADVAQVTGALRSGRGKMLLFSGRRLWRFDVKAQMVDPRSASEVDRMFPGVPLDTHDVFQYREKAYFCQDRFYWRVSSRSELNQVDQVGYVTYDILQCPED
T1 sequence (P41245 108-730): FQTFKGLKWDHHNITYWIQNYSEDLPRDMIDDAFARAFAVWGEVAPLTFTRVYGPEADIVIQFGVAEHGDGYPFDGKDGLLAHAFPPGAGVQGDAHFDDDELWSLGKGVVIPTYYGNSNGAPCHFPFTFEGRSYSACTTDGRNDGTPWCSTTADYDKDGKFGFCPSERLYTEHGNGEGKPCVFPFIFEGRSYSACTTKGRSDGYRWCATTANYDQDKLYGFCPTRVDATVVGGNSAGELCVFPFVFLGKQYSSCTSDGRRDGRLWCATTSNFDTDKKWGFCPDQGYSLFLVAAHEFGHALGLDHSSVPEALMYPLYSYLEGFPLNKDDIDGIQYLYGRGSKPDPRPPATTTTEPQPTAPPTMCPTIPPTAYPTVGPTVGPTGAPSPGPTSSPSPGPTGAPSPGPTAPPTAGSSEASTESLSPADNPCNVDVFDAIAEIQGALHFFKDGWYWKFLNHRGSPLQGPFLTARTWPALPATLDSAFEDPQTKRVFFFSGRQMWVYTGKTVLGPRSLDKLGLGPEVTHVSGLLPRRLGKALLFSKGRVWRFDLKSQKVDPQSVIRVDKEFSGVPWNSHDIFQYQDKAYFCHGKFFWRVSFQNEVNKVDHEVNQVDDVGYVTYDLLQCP
T3 sequence (P33434 110-662): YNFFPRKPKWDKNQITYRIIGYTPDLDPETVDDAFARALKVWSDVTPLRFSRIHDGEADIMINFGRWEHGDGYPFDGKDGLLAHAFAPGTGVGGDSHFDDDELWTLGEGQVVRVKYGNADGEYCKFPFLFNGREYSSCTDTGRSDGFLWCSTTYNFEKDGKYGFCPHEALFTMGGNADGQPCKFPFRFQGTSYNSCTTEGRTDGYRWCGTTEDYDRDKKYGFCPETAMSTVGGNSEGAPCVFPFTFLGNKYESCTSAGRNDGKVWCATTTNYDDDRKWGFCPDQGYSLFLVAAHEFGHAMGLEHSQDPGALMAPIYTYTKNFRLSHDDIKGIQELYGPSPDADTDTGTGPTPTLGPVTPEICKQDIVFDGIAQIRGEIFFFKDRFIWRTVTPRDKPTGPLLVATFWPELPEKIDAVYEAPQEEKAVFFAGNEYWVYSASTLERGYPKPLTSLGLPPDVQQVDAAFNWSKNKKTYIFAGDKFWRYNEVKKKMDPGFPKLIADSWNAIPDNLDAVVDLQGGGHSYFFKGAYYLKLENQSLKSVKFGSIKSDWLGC

As to “(+)-(1RS,2SR,5RS)-2-{[4-Oxo-6-(trifluoromethyl)-1,2,3-benzotriazin-3(4H)-yl]methyl}-5-{4-[(2-phenylethy)sulphanyl]benzoyl}cyclopentanecarboxylic acid [Example 83]”, the IC50 (as a rule, the midpoint of a concentration-inhibition curve) on mouse MMP-9 was over 40000 nM; at MMP-9, 2100 nM; on mouse MMP-2, 8100 nM; against MMP-2, 6700 nM.

As to `O=C(O)[C@@H]1[C@@H](Cn2nnc3ccc(C(F)(F)F)cc3c2=O)CC[C@H]1C(=O)c1ccc(SCc2ccccc2)cc1` (single isomer, unassigned) [Example 75, (+)-(1RS,2RS,5SR)-2-[4-(Benzylsulphanyl)benzoyl]-5-{[4-oxo-6-(trifluoromethyl)-1,2,3-benzotriazin-3(4H)-yl]methyl}cyclopentanecarboxylic acid], the IC50 at mouse MMP-9 was 2700 nM; at MMP-9, 470 nM; against mouse MMP-2, 4200 nM; against MMP-2, 4200 nM.

As to `Cc1ccc2nnn(C[C@@H]3CC[C@H](C(=O)c4ccc(OCc5cccc(Cl)c5)cc4)[C@H]3C(=O)O)c(=O)c2c1` (racemic) [Example 103, (+/−)-(1RS,2RS,5SR)-2-{4-[(3-Chlorobenzyl)oxy]benzoyl}-5-[(6-methyl-4-oxo-1,2,3-benzotriazin-3(4H)-yl)methyl]cyclopentanecarboxylic acid], the IC50 against mouse MMP-9 came out at 550 nM; at MMP-9, 110 nM; against mouse MMP-2, 370 nM; against MMP-2, 370 nM.

Turning to `O=C(O)[C@@H]1[C@@H](Cn2nnc3ccc(C(F)(F)F)cc3c2=O)CC[C@H]1C(=O)c1ccc(SCc2cccc(Cl)c2)cc1` (single isomer, unassigned) [Example 77, (+)-(1RS,2RS,5SR)-2-{4-[(3-Chlorobenzyl)sulphanyl]benzoyl}-5-{[4-oxo-6-(trifluoromethyl)-1,2,3-benzotriazin-3(4H)-yl]methyl}cyclopentanecarboxylic acid], the IC50 at mouse MMP-9 came out at 23000 nM; against MMP-9 it was 550 nM; against mouse MMP-2, 1400 nM; against MMP-2, 970 nM.

Consider `O=C(O)[C@@H]1[C@@H](Cn2nnc3ccc(C(F)(F)F)cc3c2=O)CC[C@H]1C(=O)c1ccc(SCc2ccc(Cl)c(Cl)c2)cc1` (single isomer, unassigned) [Example 80, (+)-(1RS,2RS,5SR)-2-{4-[(3,4-Dichlorobenzyl)sulphanyl]benzoyl}-5-{[4-oxo-6-(trifluoromethyl)-1,2,3-benzotriazin-3(4H)-yl]methyl}cyclopentanecarboxylic acid], for which the IC50 against mouse MMP-9 is over 40000 nM; against MMP-9, 780 nM; against mouse MMP-2, 1500 nM; at MMP-2, 1400 nM.

Turning to `O=C(O)[C@H]1[C@H](Cn2nnc3ccccc3c2=O)CC[C@@H]1C(=O)c1ccc(OCC2CCCC2)cc1` (racemic) [Example 4, (+/−)-(1RS,2RS,5SR)-2-[4-(Cyclopentylmethoxy)benzoyl]-5-[(4-oxo-1,2,3-benzotriazin-3(4H)-yl)methyl]cyclopentanecarboxylic acid], the IC50 at mouse MMP-9 is 61 nM; on MMP-9, 130 nM; at mouse MMP-2, 100 nM; against MMP-2 it was 84 nM.

As to `O=C(O)[C@@H]1[C@@H](Cn2nnc3ccc(C(F)(F)F)cc3c2=O)CC[C@H]1C(=O)c1ccc(OCCC2CCCCC2)cc1` (single isomer, unassigned) [Example 52, (+)-(1RS,2RS,5SR)-2-[4-(2-Cyclohexylethoxy)benzoyl]-5-{[4-oxo-6-(trifluoromethyl)-1,2,3-benzotriazin-3(4H)-yl]methyl}cyclopentanecarboxylic acid], the IC50 against mouse MMP-9 amounted to 2800 nM; at MMP-9, 830 nM; at mouse MMP-2, 1800 nM; at MMP-2, 1600 nM.

Regarding `O=C(O)[C@H]1[C@H](Cn2nnc3ccccc3c2=O)CC[C@@H]1C(=O)c1ccc(OCCC2CCCCC2)cc1` (racemic) [Example 5, (+/−)-(1RS,2RS,5SR)-2-[4-(2-Cyclohexylethoxy)benzoyl]-5-[(4-oxo-1,2,3-benzotriazin-3(4H)-yl)methyl]cyclopentanecarboxylic acid], the half-maximal inhibitory concentration (IC50) against mouse MMP-9 is 930 nM; at MMP-9, 960 nM; at mouse MMP-2, 270 nM; at MMP-2, 220 nM.

As for `Cc1ccc2nnn(C[C@@H]3CC[C@H](C(=O)c4ccc(OCc5cccc(C(F)(F)F)c5)cc4)[C@H]3C(=O)O)c(=O)c2c1` (racemic) [Example 100, (+/−)-(1RS,2SR,5RS)-2-[(6-Methyl-4-oxo-1,2,3-benzotriazin-3(4H)-yl)methyl]-5-(4-{[3-(trifluoromethyl)benzyl]oxy}benzoyl)cyclopentanecarboxylic acid], the IC50 against mouse MMP-9 stood at 1100 nM; on MMP-9, 160 nM; at mouse MMP-2, 890 nM; on MMP-2 it was 540 nM.

Turning to `Cc1cccc(COc2ccc(C(=O)[C@@H]3CC[C@H](Cn4nnc5ccc(C)cc5c4=O)[C@H]3C(=O)O)cc2)c1` (single isomer, unassigned) [Example 98, (+)-(1RS,2RS,5SR)-2-{4-[(3-Methylbenzyl)oxy]benzoyl}-5-[(6-methyl-4-oxo-1,2,3-benzotriazin-3(4H)-yl)methyl]cyclopentanecarboxylic acid], the IC50 was 460 nM against mouse MMP-9, 280 nM against MMP-9, 640 nM against mouse MMP-2 and 440 nM against MMP-2.

With `Cc1ccc2nnn(C[C@H]3CC[C@@H](C(=O)c4ccc(OCC5CCCCC5)cc4)[C@@H]3C(=O)O)c(=O)c2c1` (single isomer, unassigned) [Example 117, (+)-(1RS,2RS,5SR)-2-[4-(Cyclohexylmethoxy)benzoyl]-5-[(6-methyl-4-oxo-1,2,3-benzotriazin-3(4H)-yl)methyl]cyclopentanecarboxylic acid], the IC50 amounted to 230 nM against mouse MMP-9, 54 nM on MMP-9, 130 nM on mouse MMP-2 and 97 nM on MMP-2.
